Data published in patent US8906953B2, “Pyrrolidine substitute flavones for the treatment of inflammatory disorders” (Piramal Enterprises Limited, priority 2010, dated 2014).
pIC50: −log10 of the molar value.

Experiments:
[1] = system: arthritic (CIA) DBA/1J mice; experiment: Collagen induced arthritis in mouse; format: in vivo; settings: 50 mg/kg oral twice daily, 23 days
Description: The assay was designed as in reference, J. Exp. Med., 1985, 162, 637-646, the disclosure of which is incorporated herein by reference for the teaching of the assay.
Male DBA/1J mice (originally procured from Jackson Laboratories, USA), aged 8-10 weeks were immunized with an emulsion equivalent to 200 μg of type II collagen in Freund's Complete Adjuvant, injected intradermally at the base of the tail. A booster shot with the same emulsion was given 21 days later. A group of naïve mice was maintained alongside.
From day 23 to day 56, mice were examined daily once for the signs of rheumatoid arthritis, using the Articular Index and paw thickness as parameters. Articular Index scoring was performed employing the following criteria:
Mice with a minimum hind paw score of 2 were inducted into the study.
Mice were randomized into the various study groups and orally administered the vehicle (0.5% CMC, 1 ml/kg), test compound (compound of example 3, 50 mg/kg twice daily) and standard compound (Enbrel, 3 mg/kg, s.c., once daily). […] The dosing of the compounds was done for 23 days.
The following parameters were observed and recorded daily, • 1. Body weight • 2. Articular index • 3. Paw thickness in mm using a tension free caliper • 4. Any significant observation regarding the condition of the animal. […]
The results are graphically depicted in FIG. 3 (Articular index versus days of treatment) and FIG. 4 (Paw thickness versus days of treatment). Data obtained during the course of this study (articular index and paw thickness) was statistically evaluated by applying Mann-Whitney U test.
Mice were humanely euthanized and the hind paws were harvested from each animal, fixed in 10% neutral buffered formalin, decalcified in 5% formic acid and embedded in paraffin. Section […] were stained with either hematoxylin and eosin or safranin 0 and evaluated microscopically. Histopathological changes were scored as follows: mild (score=1), moderate (score=2) or severe (score=3) for the parameters of cellular infiltration, bone erosions and cartilage damage, graded separately. […]

IL-8 [2] = experiment: Spontaneous IL-8 release from synovial cells of RA patients; format: cell-based; settings: Homo sapiens, Synovial cell, freshly isolated synovial cells from RA patients, 16 hours
Description: Cytokine production in synovial cells obtained from rheumatoid arthritis patients undergoing knee replacement surgery, was measured as per the method described in reference, Lancet, 1989, 29, 244-247, the disclosure of which is incorporated herein by reference for the teaching of the assay. The synovial membrane tissue was digested by incubating at 37° C. for 3 hours in an atmosphere of 5% CO2, in Roswell Park Memorial Institute (RPMI) medium containing penicillin-G (100 U/mL), streptomycin (100 μg/mL), amphotericin B (50 ng/mL) (GIBCO), 1.33 mg/mL collagenase Type I (Worthington Biochemical Corporation, New Jersey, USA), 0.5 μg/mL DNAse Type I (SIGMA) and 8.33 U/mL heparin (Biological E. Limited, India). The digested tissue was then filtered through a membrane (mesh size 70 micron) (SIGMA), the cells were washed 3 times and suspended in complete medium (RPMI supplemented with 5% FCS and 5% human serum). The cell concentration was adjusted to 1×10^6 cells/mL. The viability as determined by trypan blue dye exclusion was uniform Ly≧98%. The cell suspension (100 μL) was added to the wells of a 96-well culture plate. Following cell plating, 100 μL of the culture medium and 1 μL of various concentrations of the compound of example 3 (final concentration 0.001, 0.003, 0.01, 0.03, 0.1, 0.3, 1 and 3 μM) dissolved in DMSO (dimethylsulfoxide, Sigma, Mo., USA) were added to the cells. […]

IL-8 [3] = experiment: LPS-induced IL-8 release from hPBMCs (ELISA); format: cell-based; settings: Homo sapiens
Description: Cytokine production by lipopolysaccharides (LPS) in hPBMCs (human peripheral blood mononuclear cells) was measured as in reference, Physiol. Res. 2003, 52, 593-598, the disclosure of which is incorporated by reference for the teaching of the assay. Blood was collected from healthy donors into Potassium EDTA vacutainer tubes (BID vacutainer). The PBMC were isolated using gradient centrifugation in Histopaque-1077 solution (Sigma). Isolated PBMC were suspended in RPMI 1640 (Rosewell Park Memorial Institute) culture medium (Sigma-Aldrich Fine Chemicals, USA) containing 10% fetal bovine serum (FBS) (JRH, USA), 100 U/mL penicillin (Sigma Chemical Co. St Louis, Mo., USA) and 100 μg/mL streptomycin (Sigma Chemical Co. St Louis, Mo.). The cell concentration was adjusted to 1×10^6 cells/mL. The viability as determined by trypan blue dye exclusion was uniform Ly≧98%. The cell suspension (100 μL) was added to the wells of a 96-well culture plate. Following cell plating, 79 μL of the culture medium and 1 μL of various concentrations of test compounds (compounds of formula 1) (final concentration 0.001, 0.003, 0.005, 0.01, 0.025, 0.03, 0.05, 0.1, 0.25, 0.3 and 1 μM) dissolved in DMSO (dimethyl sulfoxide, Sigma, Mo., USA) were added to the cells. The final concentration of DMSO was adjusted to 0.5%. The vehicle (0.5% DMSO) was used as control. […]

Structure (SMILES): CN1CC[C@@H](c2c(O)cc(O)c3c(=O)cc(-c4ccc(C(F)(F)F)cc4Cl)oc23)[C@@H]1CO.Cl [Compound of example 3, (+)-trans-2-(2-Chloro-4-trifluoromethyl-phenyl)-5,7-dihydroxy-8-(2-hydroxymethyl-1-methyl-pyrrolidin-3-yl)-chromen-4-one hydrochloride]
- Severity of disease by articular index and paw thickness [1]: trend towards ameriolation of the disease
- Histopathological evaluation of hind paws ([1]; cellular infiltration, bone erosions, cartilage damage): potential anti-arthritic effect
- pIC50 (IL-8 [2]): 5.46
- pIC50 (IL-8 [3]): 5.89
